In ChEMBL document CHEMBL3991601, “The target landscape of clinical kinase drugs” (Science, 2017):
Activity calls are given as the source filed them. Cut-off read from the data, not from the text of the source, for most assays here: actives have a measured Kd and inactives only a lower limit.

Target: Tyrosine-protein kinase ABL1 (Homo sapiens, UniProt P00519)
Note: in the data inactive means no Kd found up to 30 µM.

Chain of Tyrosine-protein kinase ABL1 (P00519 whole entry): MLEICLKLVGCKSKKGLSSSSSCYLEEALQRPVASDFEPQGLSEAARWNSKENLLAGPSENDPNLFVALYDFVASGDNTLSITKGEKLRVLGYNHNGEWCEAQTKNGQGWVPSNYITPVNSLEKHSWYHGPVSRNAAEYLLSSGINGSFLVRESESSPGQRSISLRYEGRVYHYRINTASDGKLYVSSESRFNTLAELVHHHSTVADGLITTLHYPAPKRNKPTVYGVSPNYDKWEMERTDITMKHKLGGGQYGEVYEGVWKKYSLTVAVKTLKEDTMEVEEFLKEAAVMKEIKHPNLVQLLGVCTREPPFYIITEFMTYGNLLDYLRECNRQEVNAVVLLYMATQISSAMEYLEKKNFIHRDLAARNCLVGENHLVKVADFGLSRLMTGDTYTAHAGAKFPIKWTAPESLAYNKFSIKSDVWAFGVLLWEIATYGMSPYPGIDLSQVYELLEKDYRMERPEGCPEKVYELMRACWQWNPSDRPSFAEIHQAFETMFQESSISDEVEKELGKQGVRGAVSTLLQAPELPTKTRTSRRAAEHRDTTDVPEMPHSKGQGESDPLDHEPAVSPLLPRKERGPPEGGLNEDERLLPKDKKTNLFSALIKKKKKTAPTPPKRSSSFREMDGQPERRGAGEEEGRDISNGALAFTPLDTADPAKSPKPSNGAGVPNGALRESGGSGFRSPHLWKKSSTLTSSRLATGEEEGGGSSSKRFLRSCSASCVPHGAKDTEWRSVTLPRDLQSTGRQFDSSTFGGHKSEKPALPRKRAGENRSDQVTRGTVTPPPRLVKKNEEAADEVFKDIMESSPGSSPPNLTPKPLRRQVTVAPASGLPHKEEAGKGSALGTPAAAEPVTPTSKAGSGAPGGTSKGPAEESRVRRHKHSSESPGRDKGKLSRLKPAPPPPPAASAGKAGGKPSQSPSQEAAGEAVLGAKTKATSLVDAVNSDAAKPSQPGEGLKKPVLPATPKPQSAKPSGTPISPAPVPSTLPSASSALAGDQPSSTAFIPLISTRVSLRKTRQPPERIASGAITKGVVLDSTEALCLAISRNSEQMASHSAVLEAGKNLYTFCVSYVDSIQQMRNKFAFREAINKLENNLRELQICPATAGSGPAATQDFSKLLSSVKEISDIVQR

Structure (SMILES) | Kd
CC(C)Nc1cc(-c2c[nH]c(C(=O)N[C@H](CO)c3cccc(Cl)c3)c2)c(Cl)cn1 [ULIXERTINIB] | > 30 µM (inactive)
CCCS(=O)(=O)Nc1ccc(F)c(C(=O)c2c[nH]c3ncc(-c4ccc(Cl)cc4)cc23)c1F [VEMURAFENIB] | > 30 µM (inactive)
CC[C@@H]1C(=O)N(C)c2cnc(Nc3ccc(C(=O)N[C@H]4CC[C@H](N5CCN(CC6CC6)CC5)CC4)cc3OC)nc2N1C(C)C [VOLASERTIB] | > 30 µM (inactive)
CCn1c(=O)c(-c2cc[nH]n2)cc2c(C)nc(N)nc21 [VOXTALISIB] | > 30 µM (inactive)

Target: T1, Activin receptor type-1 (Homo sapiens, UniProt Q04771)
T1 sequence (Q04771 whole entry): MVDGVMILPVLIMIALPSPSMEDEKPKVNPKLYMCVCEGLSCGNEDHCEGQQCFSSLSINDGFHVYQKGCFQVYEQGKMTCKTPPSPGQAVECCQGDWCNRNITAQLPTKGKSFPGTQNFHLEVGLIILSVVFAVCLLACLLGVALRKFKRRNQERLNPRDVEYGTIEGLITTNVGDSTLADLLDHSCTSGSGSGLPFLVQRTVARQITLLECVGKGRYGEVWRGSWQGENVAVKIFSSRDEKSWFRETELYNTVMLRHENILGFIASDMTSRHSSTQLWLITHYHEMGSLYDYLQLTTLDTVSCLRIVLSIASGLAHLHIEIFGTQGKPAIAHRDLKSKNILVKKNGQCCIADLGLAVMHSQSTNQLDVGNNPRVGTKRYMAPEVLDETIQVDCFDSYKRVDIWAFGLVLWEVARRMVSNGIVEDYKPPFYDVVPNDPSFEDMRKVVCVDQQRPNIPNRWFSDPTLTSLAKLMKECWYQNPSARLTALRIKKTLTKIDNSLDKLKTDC

Structure (SMILES) | Kd
CC(C)Nc1cc(-c2c[nH]c(C(=O)N[C@H](CO)c3cccc(Cl)c3)c2)c(Cl)cn1 [ULIXERTINIB] | > 30 µM (inactive)
CCCS(=O)(=O)Nc1ccc(F)c(C(=O)c2c[nH]c3ncc(-c4ccc(Cl)cc4)cc23)c1F [VEMURAFENIB] | > 30 µM (inactive)
CC[C@@H]1C(=O)N(C)c2cnc(Nc3ccc(C(=O)N[C@H]4CC[C@H](N5CCN(CC6CC6)CC5)CC4)cc3OC)nc2N1C(C)C [VOLASERTIB] | > 30 µM (inactive)
CCn1c(=O)c(-c2cc[nH]n2)cc2c(C)nc(N)nc21 [VOXTALISIB] | > 30 µM (inactive)

Target: Serine/threonine-protein kinase PAK 4 (Homo sapiens, UniProt O96013)
Sequence (O96013 whole entry): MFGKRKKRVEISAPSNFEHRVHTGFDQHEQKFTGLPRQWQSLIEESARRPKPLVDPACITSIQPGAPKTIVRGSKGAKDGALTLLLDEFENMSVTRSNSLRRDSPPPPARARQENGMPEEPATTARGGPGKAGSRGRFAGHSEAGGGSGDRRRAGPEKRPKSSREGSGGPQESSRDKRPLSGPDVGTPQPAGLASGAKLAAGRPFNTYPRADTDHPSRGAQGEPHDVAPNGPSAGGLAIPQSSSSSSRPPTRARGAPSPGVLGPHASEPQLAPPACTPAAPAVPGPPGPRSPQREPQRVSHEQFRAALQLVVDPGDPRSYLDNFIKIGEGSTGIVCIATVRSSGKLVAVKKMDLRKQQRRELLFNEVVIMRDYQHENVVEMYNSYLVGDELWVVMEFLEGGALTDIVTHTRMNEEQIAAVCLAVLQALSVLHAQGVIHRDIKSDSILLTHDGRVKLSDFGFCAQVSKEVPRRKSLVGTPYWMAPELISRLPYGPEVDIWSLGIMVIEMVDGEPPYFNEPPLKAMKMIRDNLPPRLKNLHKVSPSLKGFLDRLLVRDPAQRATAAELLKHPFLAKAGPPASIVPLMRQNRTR

Structure (SMILES) | Kd
CC(C)Nc1cc(-c2c[nH]c(C(=O)N[C@H](CO)c3cccc(Cl)c3)c2)c(Cl)cn1 [ULIXERTINIB] | > 30 µM (inactive)
CCCS(=O)(=O)Nc1ccc(F)c(C(=O)c2c[nH]c3ncc(-c4ccc(Cl)cc4)cc23)c1F [VEMURAFENIB] | > 30 µM (inactive)
CC[C@@H]1C(=O)N(C)c2cnc(Nc3ccc(C(=O)N[C@H]4CC[C@H](N5CCN(CC6CC6)CC5)CC4)cc3OC)nc2N1C(C)C [VOLASERTIB] | > 30 µM (inactive)
CCn1c(=O)c(-c2cc[nH]n2)cc2c(C)nc(N)nc21 [VOXTALISIB] | > 30 µM (inactive)

Target: T2, Interleukin-1 receptor-associated kinase 4 (Homo sapiens, UniProt Q9NWZ3)
T2 sequence (Q9NWZ3 whole entry): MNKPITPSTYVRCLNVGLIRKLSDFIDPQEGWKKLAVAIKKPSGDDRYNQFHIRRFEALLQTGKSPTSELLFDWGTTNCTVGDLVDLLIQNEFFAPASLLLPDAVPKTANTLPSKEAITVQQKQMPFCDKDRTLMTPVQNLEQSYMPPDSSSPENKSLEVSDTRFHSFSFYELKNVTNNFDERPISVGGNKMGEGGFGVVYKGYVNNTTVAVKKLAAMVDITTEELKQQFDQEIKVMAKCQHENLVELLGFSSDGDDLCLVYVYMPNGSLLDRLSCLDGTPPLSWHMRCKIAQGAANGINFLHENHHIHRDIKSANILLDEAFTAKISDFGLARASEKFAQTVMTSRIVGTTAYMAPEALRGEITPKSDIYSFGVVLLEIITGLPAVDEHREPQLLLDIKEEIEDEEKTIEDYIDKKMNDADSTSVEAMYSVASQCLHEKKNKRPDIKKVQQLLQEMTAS

Structure (SMILES) | Kd
CC(C)Nc1cc(-c2c[nH]c(C(=O)N[C@H](CO)c3cccc(Cl)c3)c2)c(Cl)cn1 [ULIXERTINIB] | > 30 µM (inactive)
CCCS(=O)(=O)Nc1ccc(F)c(C(=O)c2c[nH]c3ncc(-c4ccc(Cl)cc4)cc23)c1F [VEMURAFENIB] | > 30 µM (inactive)
CC[C@@H]1C(=O)N(C)c2cnc(Nc3ccc(C(=O)N[C@H]4CC[C@H](N5CCN(CC6CC6)CC5)CC4)cc3OC)nc2N1C(C)C [VOLASERTIB] | > 30 µM (inactive)
CCn1c(=O)c(-c2cc[nH]n2)cc2c(C)nc(N)nc21 [VOXTALISIB] | > 30 µM (inactive)

Target: T3, cGMP-dependent protein kinase 1 (Homo sapiens, UniProt Q13976)
T3 sequence (Q13976 whole entry): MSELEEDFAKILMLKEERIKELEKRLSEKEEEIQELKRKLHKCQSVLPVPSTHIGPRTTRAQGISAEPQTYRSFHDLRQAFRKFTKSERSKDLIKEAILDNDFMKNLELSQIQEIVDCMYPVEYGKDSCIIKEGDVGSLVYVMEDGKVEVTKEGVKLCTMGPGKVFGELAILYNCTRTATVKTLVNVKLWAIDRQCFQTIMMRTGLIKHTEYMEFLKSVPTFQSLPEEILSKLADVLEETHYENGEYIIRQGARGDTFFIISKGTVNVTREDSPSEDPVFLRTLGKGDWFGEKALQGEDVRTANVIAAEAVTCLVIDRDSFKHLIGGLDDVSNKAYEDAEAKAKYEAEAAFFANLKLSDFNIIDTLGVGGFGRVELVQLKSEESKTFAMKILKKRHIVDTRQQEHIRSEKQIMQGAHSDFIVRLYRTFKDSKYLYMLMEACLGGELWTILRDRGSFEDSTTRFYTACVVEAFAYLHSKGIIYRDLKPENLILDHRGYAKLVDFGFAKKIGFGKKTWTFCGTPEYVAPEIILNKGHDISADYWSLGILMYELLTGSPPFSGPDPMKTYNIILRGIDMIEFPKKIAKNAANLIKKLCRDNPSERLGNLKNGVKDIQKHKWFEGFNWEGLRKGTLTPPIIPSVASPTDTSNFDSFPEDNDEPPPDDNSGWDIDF

Structure (SMILES) | Kd
CC(C)Nc1cc(-c2c[nH]c(C(=O)N[C@H](CO)c3cccc(Cl)c3)c2)c(Cl)cn1 [ULIXERTINIB] | > 30 µM (inactive)
CCCS(=O)(=O)Nc1ccc(F)c(C(=O)c2c[nH]c3ncc(-c4ccc(Cl)cc4)cc23)c1F [VEMURAFENIB] | > 30 µM (inactive)
CC[C@@H]1C(=O)N(C)c2cnc(Nc3ccc(C(=O)N[C@H]4CC[C@H](N5CCN(CC6CC6)CC5)CC4)cc3OC)nc2N1C(C)C [VOLASERTIB] | > 30 µM (inactive)
CCn1c(=O)c(-c2cc[nH]n2)cc2c(C)nc(N)nc21 [VOXTALISIB] | > 30 µM (inactive)

Target: BMP-2-inducible protein kinase (Homo sapiens, UniProt Q9NSY1)
Sequence (Q9NSY1 whole entry): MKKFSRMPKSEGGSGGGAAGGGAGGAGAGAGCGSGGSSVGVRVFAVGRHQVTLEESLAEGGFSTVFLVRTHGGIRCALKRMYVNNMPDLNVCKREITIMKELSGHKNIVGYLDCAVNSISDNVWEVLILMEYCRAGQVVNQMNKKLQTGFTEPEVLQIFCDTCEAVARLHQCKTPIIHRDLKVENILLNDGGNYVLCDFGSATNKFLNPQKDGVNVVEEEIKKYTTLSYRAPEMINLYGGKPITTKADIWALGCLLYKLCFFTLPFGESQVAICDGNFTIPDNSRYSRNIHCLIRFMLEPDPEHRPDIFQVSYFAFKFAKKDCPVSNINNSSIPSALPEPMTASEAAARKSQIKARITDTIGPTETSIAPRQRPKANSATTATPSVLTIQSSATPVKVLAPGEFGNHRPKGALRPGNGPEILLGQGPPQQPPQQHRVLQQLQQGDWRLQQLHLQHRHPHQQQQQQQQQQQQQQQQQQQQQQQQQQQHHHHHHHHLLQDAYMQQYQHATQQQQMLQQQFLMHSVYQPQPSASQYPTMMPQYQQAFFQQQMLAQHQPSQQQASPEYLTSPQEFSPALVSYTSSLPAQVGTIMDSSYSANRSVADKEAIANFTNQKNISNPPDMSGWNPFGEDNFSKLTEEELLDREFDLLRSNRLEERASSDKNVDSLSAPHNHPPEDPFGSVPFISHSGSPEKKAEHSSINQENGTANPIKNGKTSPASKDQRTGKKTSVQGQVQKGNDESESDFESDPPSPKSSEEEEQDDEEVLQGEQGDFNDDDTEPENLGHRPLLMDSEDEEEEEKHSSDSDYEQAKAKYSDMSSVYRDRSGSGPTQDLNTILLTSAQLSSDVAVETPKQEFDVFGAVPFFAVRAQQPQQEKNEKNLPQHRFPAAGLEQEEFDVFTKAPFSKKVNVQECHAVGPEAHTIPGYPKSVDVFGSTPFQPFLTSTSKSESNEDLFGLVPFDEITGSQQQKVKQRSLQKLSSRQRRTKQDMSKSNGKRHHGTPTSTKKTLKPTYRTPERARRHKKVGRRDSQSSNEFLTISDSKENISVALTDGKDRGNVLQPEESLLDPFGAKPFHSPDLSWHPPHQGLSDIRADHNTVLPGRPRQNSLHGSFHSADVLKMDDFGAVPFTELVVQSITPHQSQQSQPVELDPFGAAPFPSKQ

Structure (SMILES) | Kd
CC(C)Nc1cc(-c2c[nH]c(C(=O)N[C@H](CO)c3cccc(Cl)c3)c2)c(Cl)cn1 [ULIXERTINIB] | > 30 µM (inactive)
CCCS(=O)(=O)Nc1ccc(F)c(C(=O)c2c[nH]c3ncc(-c4ccc(Cl)cc4)cc23)c1F [VEMURAFENIB] | > 30 µM (inactive)
CC[C@@H]1C(=O)N(C)c2cnc(Nc3ccc(C(=O)N[C@H]4CC[C@H](N5CCN(CC6CC6)CC5)CC4)cc3OC)nc2N1C(C)C [VOLASERTIB] | > 30 µM (inactive)
CCn1c(=O)c(-c2cc[nH]n2)cc2c(C)nc(N)nc21 [VOXTALISIB] | > 30 µM (inactive)

Target: Ephrin type-A receptor 4 (Homo sapiens, UniProt P54764)

Structure (SMILES) | Kd
CC(C)Nc1cc(-c2c[nH]c(C(=O)N[C@H](CO)c3cccc(Cl)c3)c2)c(Cl)cn1 [ULIXERTINIB] | > 30 µM (inactive)
CCCS(=O)(=O)Nc1ccc(F)c(C(=O)c2c[nH]c3ncc(-c4ccc(Cl)cc4)cc23)c1F [VEMURAFENIB] | > 30 µM (inactive)
CC[C@@H]1C(=O)N(C)c2cnc(Nc3ccc(C(=O)N[C@H]4CC[C@H](N5CCN(CC6CC6)CC5)CC4)cc3OC)nc2N1C(C)C [VOLASERTIB] | > 30 µM (inactive)
CCn1c(=O)c(-c2cc[nH]n2)cc2c(C)nc(N)nc21 [VOXTALISIB] | > 30 µM (inactive)

Target: Tyrosine-protein kinase Lck (Homo sapiens, UniProt P06239)
Sequence (P06239 whole entry): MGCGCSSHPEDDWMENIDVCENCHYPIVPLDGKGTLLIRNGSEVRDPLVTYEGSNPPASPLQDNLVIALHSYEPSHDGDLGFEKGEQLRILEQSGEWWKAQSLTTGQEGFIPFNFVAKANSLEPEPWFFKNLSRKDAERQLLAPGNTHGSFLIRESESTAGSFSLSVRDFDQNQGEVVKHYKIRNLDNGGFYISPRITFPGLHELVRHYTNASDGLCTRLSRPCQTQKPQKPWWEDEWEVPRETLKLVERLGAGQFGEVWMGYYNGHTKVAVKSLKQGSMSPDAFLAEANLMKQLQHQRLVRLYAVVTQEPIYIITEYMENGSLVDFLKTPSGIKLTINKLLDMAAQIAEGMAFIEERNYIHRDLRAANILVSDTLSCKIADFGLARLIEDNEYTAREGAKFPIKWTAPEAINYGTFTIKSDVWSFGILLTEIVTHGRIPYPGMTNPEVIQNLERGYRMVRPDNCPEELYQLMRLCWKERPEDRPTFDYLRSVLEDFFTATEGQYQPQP

Structure (SMILES) | Kd
CC(C)Nc1cc(-c2c[nH]c(C(=O)N[C@H](CO)c3cccc(Cl)c3)c2)c(Cl)cn1 [ULIXERTINIB] | > 30 µM (inactive)
CCCS(=O)(=O)Nc1ccc(F)c(C(=O)c2c[nH]c3ncc(-c4ccc(Cl)cc4)cc23)c1F [VEMURAFENIB] | > 30 µM (inactive)
CC[C@@H]1C(=O)N(C)c2cnc(Nc3ccc(C(=O)N[C@H]4CC[C@H](N5CCN(CC6CC6)CC5)CC4)cc3OC)nc2N1C(C)C [VOLASERTIB] | > 30 µM (inactive)
CCn1c(=O)c(-c2cc[nH]n2)cc2c(C)nc(N)nc21 [VOXTALISIB] | > 30 µM (inactive)

Target: Serine/threonine-protein kinase N2 (Homo sapiens, UniProt Q16513)
Sequence (Q16513 whole entry): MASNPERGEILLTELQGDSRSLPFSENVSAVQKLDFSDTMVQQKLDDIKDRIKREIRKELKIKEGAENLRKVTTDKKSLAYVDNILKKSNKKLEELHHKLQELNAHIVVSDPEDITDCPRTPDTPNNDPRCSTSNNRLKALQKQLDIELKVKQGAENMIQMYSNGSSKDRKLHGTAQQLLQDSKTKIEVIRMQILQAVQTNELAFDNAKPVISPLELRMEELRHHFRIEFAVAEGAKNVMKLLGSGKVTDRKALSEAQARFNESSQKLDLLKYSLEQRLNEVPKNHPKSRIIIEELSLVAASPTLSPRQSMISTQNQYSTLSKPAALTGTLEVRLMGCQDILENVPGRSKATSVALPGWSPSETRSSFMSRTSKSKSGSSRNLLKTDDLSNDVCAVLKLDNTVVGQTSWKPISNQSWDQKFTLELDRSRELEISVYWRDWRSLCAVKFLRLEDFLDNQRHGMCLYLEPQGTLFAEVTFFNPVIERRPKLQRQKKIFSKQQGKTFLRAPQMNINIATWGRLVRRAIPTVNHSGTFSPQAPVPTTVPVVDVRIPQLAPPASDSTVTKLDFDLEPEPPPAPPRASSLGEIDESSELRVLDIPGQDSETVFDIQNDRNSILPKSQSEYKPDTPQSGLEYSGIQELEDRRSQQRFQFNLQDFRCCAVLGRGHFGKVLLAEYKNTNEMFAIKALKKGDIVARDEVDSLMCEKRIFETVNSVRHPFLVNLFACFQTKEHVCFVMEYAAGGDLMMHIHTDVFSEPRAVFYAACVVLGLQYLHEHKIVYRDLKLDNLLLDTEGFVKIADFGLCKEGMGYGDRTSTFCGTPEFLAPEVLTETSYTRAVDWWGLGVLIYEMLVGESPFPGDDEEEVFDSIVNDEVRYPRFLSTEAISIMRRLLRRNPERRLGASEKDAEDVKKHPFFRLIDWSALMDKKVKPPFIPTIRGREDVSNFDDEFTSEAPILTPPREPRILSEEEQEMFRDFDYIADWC

Structure (SMILES) | Kd
CC(C)Nc1cc(-c2c[nH]c(C(=O)N[C@H](CO)c3cccc(Cl)c3)c2)c(Cl)cn1 [ULIXERTINIB] | > 30 µM (inactive)
CCCS(=O)(=O)Nc1ccc(F)c(C(=O)c2c[nH]c3ncc(-c4ccc(Cl)cc4)cc23)c1F [VEMURAFENIB] | > 30 µM (inactive)
CC[C@@H]1C(=O)N(C)c2cnc(Nc3ccc(C(=O)N[C@H]4CC[C@H](N5CCN(CC6CC6)CC5)CC4)cc3OC)nc2N1C(C)C [VOLASERTIB] | > 30 µM (inactive)
CCn1c(=O)c(-c2cc[nH]n2)cc2c(C)nc(N)nc21 [VOXTALISIB] | > 30 µM (inactive)

Target: T4, Exosome RNA helicase MTR4 (Homo sapiens, UniProt P42285)
T4 sequence (P42285 whole entry): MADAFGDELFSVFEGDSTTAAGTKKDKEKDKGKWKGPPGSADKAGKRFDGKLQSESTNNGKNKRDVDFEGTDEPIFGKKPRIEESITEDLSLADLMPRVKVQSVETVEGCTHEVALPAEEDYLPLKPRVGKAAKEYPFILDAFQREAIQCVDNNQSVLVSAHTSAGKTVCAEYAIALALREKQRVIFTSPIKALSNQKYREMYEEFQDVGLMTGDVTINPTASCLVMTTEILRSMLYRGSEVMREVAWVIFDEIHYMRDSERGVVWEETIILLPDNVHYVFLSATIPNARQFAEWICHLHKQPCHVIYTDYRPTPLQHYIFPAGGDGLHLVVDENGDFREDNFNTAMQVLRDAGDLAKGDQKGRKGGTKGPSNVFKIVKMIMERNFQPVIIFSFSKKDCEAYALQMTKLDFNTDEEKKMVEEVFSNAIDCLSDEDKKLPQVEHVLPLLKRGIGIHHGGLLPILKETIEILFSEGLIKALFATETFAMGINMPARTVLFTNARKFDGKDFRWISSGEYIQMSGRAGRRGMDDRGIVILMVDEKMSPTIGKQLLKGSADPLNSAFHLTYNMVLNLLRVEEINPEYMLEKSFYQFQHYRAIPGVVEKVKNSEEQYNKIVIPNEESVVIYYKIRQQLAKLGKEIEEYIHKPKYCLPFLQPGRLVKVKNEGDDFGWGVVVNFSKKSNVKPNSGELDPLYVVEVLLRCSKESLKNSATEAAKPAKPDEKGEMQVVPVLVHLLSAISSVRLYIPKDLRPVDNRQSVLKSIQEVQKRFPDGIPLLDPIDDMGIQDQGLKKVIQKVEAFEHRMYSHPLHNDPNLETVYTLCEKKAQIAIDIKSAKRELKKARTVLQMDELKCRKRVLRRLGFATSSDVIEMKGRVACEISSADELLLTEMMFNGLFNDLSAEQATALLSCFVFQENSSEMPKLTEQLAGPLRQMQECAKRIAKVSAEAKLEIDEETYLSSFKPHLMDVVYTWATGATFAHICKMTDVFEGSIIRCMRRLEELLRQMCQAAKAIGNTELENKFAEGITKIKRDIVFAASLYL

Structure (SMILES) | Kd
CC(C)Nc1cc(-c2c[nH]c(C(=O)N[C@H](CO)c3cccc(Cl)c3)c2)c(Cl)cn1 [ULIXERTINIB] | > 30 µM (inactive)
CCCS(=O)(=O)Nc1ccc(F)c(C(=O)c2c[nH]c3ncc(-c4ccc(Cl)cc4)cc23)c1F [VEMURAFENIB] | > 30 µM (inactive)
CC[C@@H]1C(=O)N(C)c2cnc(Nc3ccc(C(=O)N[C@H]4CC[C@H](N5CCN(CC6CC6)CC5)CC4)cc3OC)nc2N1C(C)C [VOLASERTIB] | > 30 µM (inactive)
CCn1c(=O)c(-c2cc[nH]n2)cc2c(C)nc(N)nc21 [VOXTALISIB] | > 30 µM (inactive)
